Results: patent US11945806B2, “Stabilization of amyloidogenic immunoglobulin light chains” (The Scripps Research Institute, priority 2019, dated 2024)

Target: WIL-FL (Homo sapiens, UniProt P01721)
Test: Unlabeled LC Protease Sensitivity Assay (proteinase K)
Assay type: biochemical
Conditions: small molecule 10 μM, WIL-FL 5 μM, proteinase K 50 nM, 2 hours at 37° C.
Procedure: Unlabeled LC Protease Sensitivity Assay. WIL-FL (5 μM) in phosphate-buffered saline (PBS, pH 7.4)+0.02% Pluronic F-127 was incubated with proteinase K (50 nM) with small molecule (10 μM) in 1% DMSO vehicle, or vehicle alone. After 2 hours at 37° C., reactions were quenched with 2 mM phenylmethyl sulfonyl fluoride in methanol and centrifuged at 14,000 rpm for 2 minutes. Remaining WIL-FL was quantified by injecting 10 μL of the supernatant into a Waters Acquity H-Class Bio-UPLC (ultra performance liquid chromatography) instrument equipped with a BEH200 analytical size-exclusion column (1.7 μm, 4.6×150 mm) under isocratic conditions (0.2 mL/min, PBS+1 mM EDTA, 2400 psi backpressure, 15 min), monitoring absorbance at 280 nm. Activity of each compound is given as fold protection from protease=(A_compound−A_vehicle)/(A_no_protease−A_vehicle), where each “A” corresponds to peak integration of the respective treatment.

| Protection (fold protection of LC from protease) | SMILES |
| --- | --- |
| A (A < 0.3)) | C=CCN(C)c1ccc2c(C)cc(=O)oc2c1 [Compound 252, 7-(allyl(methyl)amino)-4-methyl-2H-chromen-2-one] |
| A (A < 0.3)) | CCN(CC)c1ccc2c(C)c(CCOC(=O)NCc3cncc4ccccc34)c(=O)oc2c1 [Compound 140, 2-(7-(diethylamino)-4-methyl-2-oxo-2H-chromen-3-yl)ethyl (isoquinolin-4-ylmethyl)carbamate] |
| A (A < 0.3)) | CCN(CC)c1ccc2c(C)cc(=O)[nH]c2c1 [Compound 25, 7-(diethylamino)-4-methylquinolin-2(1H)-one] |
| A (A < 0.3)) | CCN(CC)c1ccc2c(C)c(CCOC(=O)NCc3ccccc3)c(=O)oc2c1 [Compound 78, 2-(7-(diethylamino)-4-methyl-2-oxo-2H-chromen-3-yl)ethyl benzylcarbamate] |
| A (A < 0.3)) | CCN(CC)c1ccc2c(C)c(CCOC(=O)N3CCN(c4cc(C)no4)CC3)c(=O)oc2c1 [Compound 113, 2-(7-(diethylamino)-4-methyl-2-oxo-2H-chromen-3-yl)ethyl 4-(3-methylisoxazol-5-yl)piperazine-1-carboxylate] |
| C (C ≥ 0.6) | CCN(CC)c1ccc2c(C)c(CCNC(=O)NCc3nccc4ccccc34)c(=O)oc2c1 [Compound 290, 1-(2-(7-(diethylamino)-4-methyl-2-oxo-2H-chromen-3-yl)ethyl)-3-(isoquinolin-1-ylmethyl)urea] |
| A (A < 0.3)) | Cc1cc(=O)oc2cc(OC(C)c3cnccn3)ccc12 (centres unmarked) [Compound 173, 4-methyl-7-(1-(pyrazin-2-yl)ethoxy)-2H-chromen-2-one] |
| B (3 ≤ B < 0.6) | CCN(CC)c1ccc2c(C)c(CCNC(=O)NCc3cc4ccccc4cn3)c(=O)oc2c1 [Compound 295, 1-(2-(7-(diethylamino)-4-methyl-2-oxo-2H-chromen-3-yl)ethyl)-3-(isoquinolin-3-ylmethyl)urea] |
| A (A < 0.3)) | CCN(CC)c1ccc2c(C)c(CCOC(=O)NCc3cccc(CCC(=O)O)c3)c(=O)oc2c1 [Compound 309, 3-(3-((((2-(7-(diethylamino)-4-methyl-2-oxo-2H-chromen-3-yl)ethoxy)carbonyl)amino)methyl)phenyl)propanoic acid] |
| A (A < 0.3)) | CCN(CC)c1ccc2c(C)c(CCNC(=O)NCc3ccc4[nH]ccc4c3)c(=O)oc2c1 [Compound 279, 1-((1H-indol-5-yl)methyl)-3-(2-(7-(diethylamino)-4-methyl-2-oxo-2H-chromen-3-yl)ethyl)urea] |
| A (A < 0.3)) | Cc1cc(=O)oc2cc(NCCCc3ccccc3)ccc12 [Compound 30, 4-methyl-7-((3-phenylpropyl)amino)-2H-chromen-2-one] |
| B (3 ≤ B < 0.6) | Cc1cc(=O)oc2cc(OCC(C)c3ccccc3)ccc12 (centres unmarked) [Compound 43, 4-methyl-7-(2-phenylpropoxy)-2H-chromen-2-one] |
| C (C ≥ 0.6) | CCN(CC)c1ccc2c(C)c(CCN3C(=O)NC4(CCN(c5ncnc6[nH]cnc56)C4)C3=O)c(=O)oc2c1 (centres unmarked) [Compound 197, 3-(2-(7-(diethylamino)-4-methyl-2-oxo-2H-chromen-3-yl)ethyl)-7-(9H-purin-6-yl)-1,3,7-triazaspiro[4.4]nonane-2,4-dione] |
| A (A < 0.3)) | CC(C)CC1NC(=O)N(CC(=O)Nc2ccc(C(F)(F)F)cc2)C1=O (single isomer, unassigned) [Compound 22] |
| A (A < 0.3)) | CCN(CC)c1ccc2c(C)c(CCN3C(=O)NC4(CCN(c5ncc(C(F)(F)F)cn5)C4)C3=O)c(=O)oc2c1 (centres unmarked) [Compound 195, 3-(2-(7-(diethylamino)-4-methyl-2-oxo-2H-chromen-3-yl)ethyl)-7-(5-(trifluoromethyl)pyrimidin-2-yl)-1,3,7-triazaspiro[4.4]nonane-2,4-dione] |
| C (C ≥ 0.6) | CCN(CC)c1ccc2c(C)c(CCN3C(=O)NC4(CCN(c5ncccn5)C4)C3=O)c(=O)oc2c1 (centres unmarked) [Compound 194, 3-(2-(7-(diethylamino)-4-methyl-2-oxo-2H-chromen-3-yl)ethyl)-7-(pyrimidin-2-yl)-1,3,7-triazaspiro[4.4]nonane-2,4-dione] |
| A (A < 0.3)) | Cc1cc(=O)oc2cc(N(C)C)ccc12 [Compound 266, 7-(dimethylamino)-4-methyl-2H-chromen-2-one] |

| Protection (fold protection of LC from protease) | SMILES |
| --- | --- |
| B (3 ≤ B < 0.6) | CCN(CC)c1ccc2c(C)c(CCN3C(=O)NC4(CCN(S(=O)(=O)c5ccccc5)C4)C3=O)c(=O)oc2c1 (centres unmarked) [Compound 201, 3-(2-(7-(diethylamino)-4-methyl-2-oxo-2H-chromen-3-yl)ethyl)-7-(phenylsulfonyl)-1,3,7-triazaspiro[4.4]nonane-2,4-dione] |
| C (C ≥ 0.6) | CCN(CC)c1ccc2c(C)c(CCNC(=O)NCc3cncc4ccccc34)c(=O)oc2c1 [Compound 289, 1-(2-(7-(diethylamino)-4-methyl-2-oxo-2H-chromen-3-yl)ethyl)-3-(isoquinolin-4-ylmethyl)urea] |
| A (A < 0.3)) | Cc1cc(=O)oc2cc(NCCc3ccccc3)ccc12 [Compound 40, 4-methyl-7-(phenethylamino)-2H-chromen-2-one] |
| A (A < 0.3)) | CCN(CC)c1ccc2c(C)c(CC(=O)NCCc3ccccc3)c(=O)oc2c1 [Compound 55, 2-(7-(diethylamino)-4-methyl-2-oxo-2H-chromen-3-yl)-N-phenethylacetamide] |
| A (A < 0.3)) | CCc1cc(=O)oc2cc(N(CC)CC)ccc12 [Compound 136, 7-(diethylamino)-4-ethyl-2H-chromen-2-one] |
| B (3 ≤ B < 0.6) | CCN(CC)c1ccc2c(C)c(CCNC(=O)NCCc3cccnc3)c(=O)oc2c1 [Compound 99, 1-(2-(7-(diethylamino)-4-methyl-2-oxo-2H-chromen-3-yl)ethyl)-3-(2-(pyridin-3-yl)ethyl)urea] |
| C (C ≥ 0.6) | CCN(CC)c1ccc2c(C)c(CCOC(=O)NCc3cccc(-c4ncc[nH]4)c3)c(=O)oc2c1 [Compound 153, 2-(7-(diethylamino)-4-methyl-2-oxo-2H-chromen-3-yl)ethyl (3-(1H-imidazol-2-yl)benzyl)carbamate] |
| C (C ≥ 0.6) | CCN(CC)c1ccc2c(C)c(CCOC(=O)NCc3cccc(-c4cnccn4)c3)c(=O)oc2c1 [Compound 157, 2-(7-(diethylamino)-4-methyl-2-oxo-2H-chromen-3-yl)ethyl (3-(pyrazin-2-yl)benzyl)carbamate] |
| B (3 ≤ B < 0.6) | CCN(CC)c1ccc2c(C)c(CCNC(=O)NCc3cccc(S(N)(=O)=O)c3)c(=O)oc2c1 [Compound 299, 3-((3-(2-(7-(diethylamino)-4-methyl-2-oxo-2H-chromen-3-yl)ethyl)ureido)methyl)benzenesulfonamide] |
| A (A < 0.3)) | CCN(CC)c1ccc2c(C)c(CCN3C(=O)NC4(CCN(C(=O)c5ncccn5)CC4)C3=O)c(=O)oc2c1 [Compound 206, 3-(2-(7-(diethylamino)-4-methyl-2-oxo-2H-chromen-3-yl)ethyl)-8-(pyrimidine-2-carbonyl)-1,3,8-triazaspiro[4.5]decane-2,4-dione] |
| B (3 ≤ B < 0.6) | CCN(CC)c1ccc2c(C)c(CCNC(=O)NCc3cnc4ccccc4c3)c(=O)oc2c1 [Compound 288, 1-(2-(7-(diethylamino)-4-methyl-2-oxo-2H-chromen-3-yl)ethyl)-3-(quinolin-3-ylmethyl)urea] |
| C (C ≥ 0.6) | CCN(CC)c1ccc2c(C)c(CCNC(=O)NCc3cccc(-c4c[nH]cn4)c3)c(=O)oc2c1 [Compound 291, 1-(3-(1H-imidazol-4-yl)benzyl)-3-(2-(7-(diethylamino)-4-methyl-2-oxo-2H-chromen-3-yl)ethyl)urea] |
| C (C ≥ 0.6) | CCN(CC)c1ccc2c(C)c(CCNC(=O)NCc3cccnc3)c(=O)oc2c1 [Compound 98, 1-(2-(7-(diethylamino)-4-methyl-2-oxo-2H-chromen-3-yl)ethyl)-3-(pyridin-3-ylmethyl)urea] |
| C (C ≥ 0.6) | CCN(CC)c1ccc2c(C)c(CCN3C(=O)NC4(CCN(c5nccc(C#N)n5)CC4)C3=O)c(=O)oc2c1 [Compound 190, 2-(3-(2-(7-(diethylamino)-4-methyl-2-oxo-2H-chromen-3-yl)ethyl)-2,4-dioxo-1,3,8-triazaspiro[4.5]decan-8-yl)pyrimidine-4-carbonitrile] |
| A (A < 0.3)) | CCN(CC)c1ccc2c(C)c(CCC(=O)NCCc3ccncc3)c(=O)oc2c1 [Compound 76] |
| B (3 ≤ B < 0.6) | CCN(CC)c1ccc2c(C)c(CCNC(=O)NCc3cccc(C(N)=O)c3)c(=O)oc2c1 [Compound 298, 3-((3-(2-(7-(diethylamino)-4-methyl-2-oxo-2H-chromen-3-yl)ethyl)ureido)methyl)benzamide] |

| SMILES | Protection (fold protection of LC from protease) |
| --- | --- |
| CCN(CC)c1ccc2c(C)c(CCOC(=O)NC)c(=O)oc2c1 [Compound 79, 2-(7-(diethylamino)-4-methyl-2-oxo-2H-chromen-3-yl)ethyl methylcarbamate] | A (A < 0.3)) |
| Cc1cc(=O)oc2cc(OCCC(C)c3ccccc3)ccc12 (centres unmarked) [Compound 46, 4-methyl-7-(3-phenylbutoxy)-2H-chromen-2-one] | A (A < 0.3)) |
